This is an account of results in US20210371459A1, “DIMERIC PEPTIDE INHIBITORS OF APOPTOSIS PROTEINS” (Hepagene Therapeutics (HK) Limited, priority 2017, published 2021).

Common to all, as to conditions: FP, probe AbuRPFK-5FAM, 60 min at 25° C.
For test [1], the target named is T1, cIAP2-BIR3 (Homo sapiens, UniProt Q13489).
T1 construct: cIAP2-BIR3; Reaction Biology; APT-11-372; purchased Reaction Biology APT-11-372
The test can be described thus: cIAP2-BIR3 fluorescence polarization binding assay. An excerpt:
(§1) IAPs are one main cause of cancer development and may result from overexpression of anti-apoptotic proteins. This protocol establishes three binding assays for XIAP Bir3 domain, cIAP1 and cIAP2 using FP (Fluorescence polarization) technology. The fluorescence probe used is a synthetic peptide conjugated to 5-carboxyfluorescein (AbuRPFK-5FAM). The fluorescence polarization value (mP) was detected by Envision, which was used to reflect the binding degree of protein and fluorescent marker. Reagents and equipment used in the assay are listed below, followed by the protocol.
(§2) • a) Prepare 100 times of the final cpd concentration in appropriate tube and transfer 5 uL compound (“cpd”) to 45 μL 1× reaction buffer with 10% DMSO. • b) The final reference cpd concentration is 10000, 3333.3, 1111.1, 370.4, 123.4, 41.2, 13.7, 4.57, 1.52, 0.51, 0.17 and 0 nM. So the 100 times of the concentration is 1000, 333.3, 111.1, 37.04, 12.34, 4.12, […], 0.15, 0.05, 0.017 and 0 μM. The final test cpds concentration is 3333.3, 1111.1, 370.4, 123.4, 41.2, 13.7, 4.57, 1.52, 0.51, 0.17, 0.057 and 0 nM. So the 100 times of the concentration is 333.3, 111.1, 37.04, 12.34, 4.12, […], 0.15, 0.05, 0.017, 0.0057 and 0 μM • c) Add 8 μL/well each dose enzyme to 384 well microplate (ProxiPlate-384 F Plus, 6008260) using multichannel pipette, prepared in step 2.1.1.2 • d) Centrifuge at 1000 rpm. • e) Add 2 μL/well cpd to 384 well microplate (ProxiPlate-384 F Plus, 6008260) using multichannel pipette, prepared in step a). • f) Centrifuge at 1000 rpm. RT, 15 min. • g) Start the assay by adding 10 uL/well substrate (prepared in step 2.1.1.3) to the same 384 well microplate using multichannel pipette • h) Centrifuge at 1000 rpm. • i) Cover the assay plate and incubate for 60 min at 25° C. • j) Read on Envision 2104 for mP and plot the IC50s with mP values. • k) Data analysis: IC50s were determined based on a non-linear regression analysis of data collected.
(Polarisation of emitted light reports the rotation of a fluorescent probe.)

Test [2] deals with T2, XIAP-BIR3 (Homo sapiens, UniProt P98170).
T2 construct: purchased Reaction Biology APT-11-374
The test can be described thus: XIAP-BIR3 fluorescence polarization binding assay.
Source text: as §1, §2

Test [3] deals with T3, cIAP1-BIR3 (Homo sapiens, UniProt Q13490).
T3 construct: cIAP1-BIR3; Reaction Biology; APT-11-370; purchased Reaction Biology APT-11-370
The test can be described thus: cIAP1-BIR3 fluorescence polarization binding assay.
Source text: as §1, §2

T2 sequence (P98170 241-356 limits assumed): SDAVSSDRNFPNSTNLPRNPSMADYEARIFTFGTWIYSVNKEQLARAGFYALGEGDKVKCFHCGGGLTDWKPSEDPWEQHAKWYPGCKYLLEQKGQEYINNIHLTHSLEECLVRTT
T3 sequence (Q13490 253-363 limits assumed): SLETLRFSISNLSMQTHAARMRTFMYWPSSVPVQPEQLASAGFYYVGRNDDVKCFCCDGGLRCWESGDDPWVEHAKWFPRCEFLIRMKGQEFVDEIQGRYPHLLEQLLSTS
T1 sequence (Q13489 238-349 limits assumed): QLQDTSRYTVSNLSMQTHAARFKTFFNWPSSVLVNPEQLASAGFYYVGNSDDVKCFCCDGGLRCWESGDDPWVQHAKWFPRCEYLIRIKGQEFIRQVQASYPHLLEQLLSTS

By IC50 is commonly meant the concentration needed to halve the response being measured. A lower IC50 goes with greater potency. For `CN[C@@H](C)C(=O)N[C@H](C(=O)N1CCC[C@H]1C(=O)N[C@@H]1CCCc2c1cccc2N1CCN(c2cccc3c2CCC[C@H]3NC(=O)[C@@H]2CCCN2C(=O)[C@@H](NC(=O)[C@H](C)NC)C2CCCCC2)CC1)C1CCCCC1` [Compound I, (2S)-1-[(2S)-2-Cyclohexyl-2-[(2S)-2-(methylamino)propanamido]acetyl]-N-[(1R)-5-[4-[(5R)-5-[(2S)-1-[(2S)-2-cyclohexyl-2-[(2S)-2-(methylamino)propanamido]acetyl]pyrrolidine-2-amido]-5,6,7,8-tetrahydronaphthalen-1-yl]piperazin-1-yl]-1,2,3,4-tetrahydronaphthalen-1-yl]pyrrolidine-2-carboxamide], the half-inhibitory concentration (IC50) was in the range of 10 to 100 nM in test [1], 10 to 100 nM in test [2] and 0.1 to 10 nM in test [3].
